What all share (format): cell-based
The subject of assay [1] is bacteria/candida biofilm (samples from Example 1). The assay can be described thus: Prevention of biofilm formation, MBIC by crystal violet assay. The settings on record: 48 hours at 37° C.; averaged results; unit not given. On the procedure:
For the prevention of biofilm formation, desired concentrations of metals (loid) and/or PBCs were added to 96 wells, with 1.0×10^6 CFU/ml bacteria/candida added to each well. The plates were then incubated for 48 hours at 37° C. in a microplate shaker incubator at 150 rpm. Afterward, the planktonic cells and spent medium were discarded, and the adhered biomass was rinsed twice with distilled water. Biofilm biomass and minimum biofilm inhibitory concentration (MBIC) were determined using the crystal violet assay. The well with no bacterial biofilm and an OD600 absorption of zero was considered the MBIC. Results from at least three separate biological replicates were averaged.
In the crystal violet assay, the microplates or Calgary biofilm device were rinsed twice with 200 μl of 0.9% saline, then stained with 200 μl of a 0.1% crystal violet solution for 30minutes. Following staining, the microplates and pegs were washed three times with 200 μl of ddH2O to remove excess dye. Biofilm quantification was performed by sonication using a 250HT™ ultrasonic cleaner (VWR International) set at 60 Hz for 10 minutes into 200 μl of 70% ethanol, and absorbance was read at 600 nm using 70% ethanol as the blank.

Assay [2] deals with bacteria/fungi samples from Example 1. The assay can be described thus: Planktonic susceptibility, MIC and MBC in 96-well microtiter plates. Conditions: averaged results. On the procedure: Planktonic Susceptibility. Testing of planktonic susceptibility was conducted using MIC and MBC assessments on bacterial strains using 96-well microtiter plates. To prepare the wells for bacteria, serial dilutions of the antibacterial agents were Carried out along the rows of two microtiter plates. The antibacterials were 2-fold diluted with Mueller-Hinton broth (MHB) in each column, reaching a volume of 75 μL. The 1.0 McFarland standard was diluted 15-fold in MHB, and 75 μL of inoculum was added to the wells treated with antibacterials, resulting in a total volume of 150 μL. The microtiter plates were covered, then shake-incubated overnight at 150 rpm and 37° C. MIC was determined based on visible bacterial growth. In cases of Antibacterial opacity or ambiguous results, streaking of well cultures on Mueller-Hinton agar (MHA), overnight incubation, and subsequent comparison to controls were performed. MBC was determined by transferring 3 u L of culture from all MIC microtiter plate wells to 147 μL of MHB in fresh plates. These plates were shake-incubated overnight at 150 rpm and 37° C., and bacterial growth was visually inspected. Combination Antimicrobial Efficacy Testing. This checkerboard (96-well microtiter plates) included one column just media without bacteria/fungi and MBAs/PBCs (as a negative control), and one column without MBA/PBCs, with media, and bacteria/fungi (as a growth and positive controls control), MBAs and/or PBCs were diluted ½ across the rows (19, 20). For each analysis, the same MIC and MBC/MFC steps indicated above were conducted for surveying the bacteriostatic, bactericidal, and reading synergism effects of MBAs with PBCs combinations.
Samples from Example 1 were tested using combinations of additives as well as additives on their own for measuring bacteriostatic effects, bactericidal effects and biofilm inhibition properties.
Method of bacteriostatic effects, bactericidal effects explained in example 1 using MIC and MBC methods, respectively.

Assay [3] concerns 11 different gram-positive and gram-negative bacteria as well as 7 different fungi, in total 18 microbes. The assay can be described thus: Combination antimicrobial % efficacy in comparison to silver (MIC, MBC/MFC, MBIC averaged). Conditions: molar ratios Zinc 1:Carvacrol 3:Resveratrol 1:THC 0.1:CBD 0.1, averaged over all microbes and MIC, minimum of three biological repeats. The source says:
Samples of 11 different gram-positive and gram-negative bacteria as well as 7 different fungi, in total 18 microbes included Pseudomonas aeruginosa ATCC 27853, Pseudomonas aeruginosa PAO1, Klebsiella pneumoniae ATCC 11296, Staphylococcus aureus ATCC 25923, Methicillin resistant S. aureus (MRSA) ATCC 33591, Escherichia coli ATCC 25922,Enterococcus faecium ATCC 19434, Staphylococcus epidermidis ATCC 12228, Enterococcus faecalis ATCC 29212, Proteus mirabilisATCC 35659, Acinetobacter baumannii CDC strain AR Bank #0033, Candida albicans ATCC 90028, Candida glabrata ATCC 2001, Candida parasilosis ATCC 22019, Candida krusei ATCC 14243, Candida tropicalis ATCC 13803, Candida auris ATCC MYA-5002, Aspergillus fumigatusATCC 16404 were used.
Metal (loid)-based antimicrobials (MBAs) including, silver nitrate (AgNO3, Sigma-Aldrich, St Louis, MO, USA Lot #M3259), potassium tellurite (K2TeO3, Sigma-Aldrich, St Louis, MO, USA, Cat #P2358-12C), hydrogen tetrachloroaurate (III) trihydrate (AuCl4.3H2O, Alfa Acsar Tweksbury, MA, USA, Lot #U17G046), zinc oxide nanoparticles, <100 nm (Sigma Aldrich), zinc sulfate (ZnSO4·1H2O), and zinc sulfate (ZnSO4.7H2O) were received from Fisher Scientific (Fair Lawn, NJ, USA, Lot #723689). […]
Planktonic Susceptibility. […] MIC was determined based on visible bacterial growth. […]

For the next assay, the system named is microbes. The assay can be described thus: Evaluation of zinc sources for antimicrobial properties. The settings on record: comparison of zinc sources.

Results on six compounds are retold here after patent US20250345363A1, “ANTIMICROBIAL AND ANTIBIOFILM COMPOSITIONS AND USES THEREOF” (MHCombiotic Inc., priority 2024, published 2025).

Consider `C[N+](C)(C)CC(=O)O` [Betaine (0.1%), Betaine], for which the “Biofilm Inhibition (MBIC)” value in assay [1] is recorded as 1. In assay [2] (unit inferred, unit assumed), the Bactericidal (MBC) turned out to be 1 µg/mL and the Bacteriostatic (MIC) worked out at 1 µg/mL.

In the case of `Cc1ccc(C(C)C)cc1O` [Carvacrol, 5-Isopropyl-2-methylphenol], in assay [3], the “Total antimicrobial efficacy percent over silver alone, including Antibacterial and antibiofilm efficacy (%)” value was 1.3%.

For `OO` [H2O2 (1.5%), hydrogen peroxide], in assay [1], the “Biofilm Inhibition (MBIC)” value worked out at 0.5. Moreover, in assay [2] (unit inferred, unit assumed), the Bactericidal (MBC) is 0.5 µg/mL and the Bacteriostatic (MIC) worked out at 0.5 µg/mL.

In the case of `OO` [H2O2 (3%), hydrogen peroxide], the “Biofilm Inhibition (MBIC)” value in assay [1] amounted to 0.5. For the same compound, in assay [2] (unit inferred, unit assumed), the Bactericidal (MBC) was found to be 0.5 µg/mL and the Bacteriostatic (MIC) was determined as 0.25 µg/mL.

Turning to `O.O.O.O.O.O.O.O=S(=O)([O-])[O-].[Zn+2]` [zinc sulfate heptahydrate], the “Antimicrobial effects of zinc source (in words)” value with microbes is recorded as “comparable to zinc sulfate monohydrate”.

As to “benzalkonium chloride [Liquid BZK (0.1%)]”, the “Biofilm Inhibition (MBIC)” value in assay [1] was “(0.25-0.5)”. Further, the Bacteriostatic (MIC) in assay [2] (unit inferred, unit assumed) stood at 0.25 µg/mL. In addition, the “Bactericidal (MBC)” value in assay [2] (unit not given) is recorded as “(0.25-0.5)”.
